Experimental data taken from ChEMBL document CHEMBL1201862, “PubChem BioAssay data set” (2004).
Activity calls are given as the source filed them.

Key:
[1] = Luminescence Cell-Based Dose Retest to Confirm Inhibitors of Cancer Stem Cells. [Related pubchem assays (depositor defined):AID2717, AID2721]; type: functional; conditions: Homo sapiens
Trypsin = Trypsin (Sus scrofa, UniProt P00761); experiment: trypsin protease activity blockade – biochemical, quenched peptide fluorescence, cherry-pick, selectivity assay for Rce1 protease inhibitor project, dose response (AID 488789)
CAAX prenyl protease 2 = molecular target: T1, CAAX prenyl protease 2 (Saccharomyces cerevisiae S288c, UniProt Q03530); type: biochemical
T1 sequence (Q03530 whole entry): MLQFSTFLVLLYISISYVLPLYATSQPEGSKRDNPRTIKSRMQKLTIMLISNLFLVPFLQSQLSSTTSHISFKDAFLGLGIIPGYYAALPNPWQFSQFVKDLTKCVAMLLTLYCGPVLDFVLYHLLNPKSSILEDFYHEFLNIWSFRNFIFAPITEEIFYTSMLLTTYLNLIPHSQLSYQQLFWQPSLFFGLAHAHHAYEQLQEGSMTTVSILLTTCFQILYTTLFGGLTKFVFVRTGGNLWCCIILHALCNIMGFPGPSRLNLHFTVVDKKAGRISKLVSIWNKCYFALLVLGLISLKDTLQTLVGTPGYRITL

[2] = molecular target: T2, Replicative DNA helicase DnaB (Mycobacterium tuberculosis, UniProt P9WMR3); experiment: DnaB intein splicing inhibitors, dose response, biochemical, cell-free fluorescence (AID 449749); type: functional
T2 sequence (P9WMR3 whole entry): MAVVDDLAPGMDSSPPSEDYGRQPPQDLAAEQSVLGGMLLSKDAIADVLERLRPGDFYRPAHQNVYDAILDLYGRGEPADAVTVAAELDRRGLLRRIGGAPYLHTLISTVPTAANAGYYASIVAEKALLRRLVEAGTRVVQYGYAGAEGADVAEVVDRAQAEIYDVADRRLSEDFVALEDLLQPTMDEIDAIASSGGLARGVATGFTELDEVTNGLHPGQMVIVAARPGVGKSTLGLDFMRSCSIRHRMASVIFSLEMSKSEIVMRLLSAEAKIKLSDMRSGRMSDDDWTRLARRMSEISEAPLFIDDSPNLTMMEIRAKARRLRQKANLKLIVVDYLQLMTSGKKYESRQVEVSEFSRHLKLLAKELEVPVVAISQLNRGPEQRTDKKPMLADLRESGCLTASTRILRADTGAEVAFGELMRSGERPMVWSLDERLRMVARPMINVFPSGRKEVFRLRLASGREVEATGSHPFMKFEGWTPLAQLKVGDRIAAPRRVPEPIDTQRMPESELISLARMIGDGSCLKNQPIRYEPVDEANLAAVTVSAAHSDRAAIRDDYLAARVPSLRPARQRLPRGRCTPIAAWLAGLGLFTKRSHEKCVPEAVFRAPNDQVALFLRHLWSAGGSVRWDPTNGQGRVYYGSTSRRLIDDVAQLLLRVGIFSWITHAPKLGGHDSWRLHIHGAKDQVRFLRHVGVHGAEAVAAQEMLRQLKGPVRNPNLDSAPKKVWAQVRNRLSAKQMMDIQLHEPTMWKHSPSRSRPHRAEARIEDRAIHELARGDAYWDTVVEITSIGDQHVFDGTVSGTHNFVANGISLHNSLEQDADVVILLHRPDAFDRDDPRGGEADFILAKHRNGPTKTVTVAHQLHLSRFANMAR

Protein RecA = molecular target: T3, Protein RecA (Mycobacterium tuberculosis, UniProt P9WHJ3); experiment: Fluorescence Cell-Free Homogeneous Dose Retest to Identify Inhibitors of RecA-Intein Splicing Activity. [Related pubchem assays (depositor defined):AID2097, AID2223, AID489010, AID492950]; type: functional
T3 sequence (P9WHJ3 whole entry): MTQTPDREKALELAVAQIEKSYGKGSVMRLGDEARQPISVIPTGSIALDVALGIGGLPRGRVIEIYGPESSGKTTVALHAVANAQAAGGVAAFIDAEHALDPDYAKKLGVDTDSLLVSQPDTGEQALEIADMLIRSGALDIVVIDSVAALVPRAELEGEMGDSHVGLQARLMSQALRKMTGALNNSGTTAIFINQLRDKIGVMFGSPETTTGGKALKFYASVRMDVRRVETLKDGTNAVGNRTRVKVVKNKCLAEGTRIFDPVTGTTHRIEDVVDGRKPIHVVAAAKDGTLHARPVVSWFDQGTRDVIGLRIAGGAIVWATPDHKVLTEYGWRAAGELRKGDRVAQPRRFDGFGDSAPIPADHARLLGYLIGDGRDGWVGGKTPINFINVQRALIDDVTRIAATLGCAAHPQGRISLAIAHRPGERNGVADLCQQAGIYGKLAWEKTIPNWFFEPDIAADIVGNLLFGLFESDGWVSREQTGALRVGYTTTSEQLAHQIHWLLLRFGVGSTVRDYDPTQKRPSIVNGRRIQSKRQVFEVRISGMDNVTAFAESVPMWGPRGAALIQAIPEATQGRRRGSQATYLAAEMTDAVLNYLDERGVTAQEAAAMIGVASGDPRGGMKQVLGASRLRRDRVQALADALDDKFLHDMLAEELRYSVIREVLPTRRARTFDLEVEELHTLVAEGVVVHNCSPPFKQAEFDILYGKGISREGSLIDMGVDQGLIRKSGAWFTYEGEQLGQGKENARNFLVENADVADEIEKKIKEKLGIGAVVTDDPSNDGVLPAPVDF

[3] = molecular target: Disintegrin and metalloproteinase domain-containing protein 17 (Homo sapiens, UniProt P78536); experiment: exosite inhibitors of ADAM17, dose response, biochemical (AID 743260)
[4] = inhibition of ADAM10 peptide cleavage – biochemical, FRET peptide substrate, recombinant human ADAM10, selectivity assay for ADAM17 exosite inhibitor project, dose response (AID 743259);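 also: ADAM10 enzyme cleaving a FRET peptide substrate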
[5] = molecular target: Alkaline phosphatase, placental type (Homo sapiens, UniProt P05187); experiment: human placental alkaline phosphatase inhibition – biochemical, luminescence, confirmation (AID 1512); type: functional
[6] = molecular target: T4, Alkaline phosphatase, tissue-nonspecific isozyme (Homo sapiens, UniProt P05186); experiment: potency against alkaline phosphatase TNAP – biochemical, luminescent, dose response, SAR follow-up (AID 1056)
T4 sequence (P05186 whole entry): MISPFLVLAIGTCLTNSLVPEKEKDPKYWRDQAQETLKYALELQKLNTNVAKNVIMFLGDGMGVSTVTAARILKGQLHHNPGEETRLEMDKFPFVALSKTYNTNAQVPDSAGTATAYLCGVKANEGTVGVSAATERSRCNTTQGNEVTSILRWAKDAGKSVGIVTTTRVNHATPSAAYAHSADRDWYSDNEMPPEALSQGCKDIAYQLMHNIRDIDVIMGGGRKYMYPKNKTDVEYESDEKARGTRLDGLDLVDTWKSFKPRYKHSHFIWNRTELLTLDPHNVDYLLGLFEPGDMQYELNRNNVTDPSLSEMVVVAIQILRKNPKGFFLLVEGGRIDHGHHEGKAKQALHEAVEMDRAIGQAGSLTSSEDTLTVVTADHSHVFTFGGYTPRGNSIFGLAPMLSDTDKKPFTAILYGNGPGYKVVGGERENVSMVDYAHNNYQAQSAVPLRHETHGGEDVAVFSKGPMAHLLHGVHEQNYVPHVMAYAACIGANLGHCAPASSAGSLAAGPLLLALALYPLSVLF

[7] = protection from phage-mediated lysis, alamar blue read-out – E. coli UTI89, K1F phage, bacterial capsule biogenesis inhibitors (AID 488966); type: functional
Vero [8] = experiment: cells; type: functional, cell-based; conditions: Chlorocebus sabaeus
Vero [9] = experiment: cells; type: functional; conditions: Chlorocebus sabaeus
[10] = molecular target: G-protein coupled receptor 55 (Homo sapiens, UniProt Q9Y2T6); experiment: selective activators of receptor GPR55 – imaging, U2OS cells, beta-arrestin-GFP redistribution, primary screen (AID 1961); type: functional
Sequence of G-protein coupled receptor 55 (Q9Y2T6 whole entry): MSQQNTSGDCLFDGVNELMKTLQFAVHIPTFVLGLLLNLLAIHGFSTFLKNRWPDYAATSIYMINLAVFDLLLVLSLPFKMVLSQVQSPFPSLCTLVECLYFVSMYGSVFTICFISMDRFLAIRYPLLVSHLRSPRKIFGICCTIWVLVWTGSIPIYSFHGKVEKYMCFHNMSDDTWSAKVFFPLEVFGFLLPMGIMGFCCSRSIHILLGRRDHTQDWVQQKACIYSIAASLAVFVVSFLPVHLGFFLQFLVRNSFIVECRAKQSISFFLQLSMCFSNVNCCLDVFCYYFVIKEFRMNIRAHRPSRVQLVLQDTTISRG

Sequence of Alkaline phosphatase, placental type (P05187 whole entry): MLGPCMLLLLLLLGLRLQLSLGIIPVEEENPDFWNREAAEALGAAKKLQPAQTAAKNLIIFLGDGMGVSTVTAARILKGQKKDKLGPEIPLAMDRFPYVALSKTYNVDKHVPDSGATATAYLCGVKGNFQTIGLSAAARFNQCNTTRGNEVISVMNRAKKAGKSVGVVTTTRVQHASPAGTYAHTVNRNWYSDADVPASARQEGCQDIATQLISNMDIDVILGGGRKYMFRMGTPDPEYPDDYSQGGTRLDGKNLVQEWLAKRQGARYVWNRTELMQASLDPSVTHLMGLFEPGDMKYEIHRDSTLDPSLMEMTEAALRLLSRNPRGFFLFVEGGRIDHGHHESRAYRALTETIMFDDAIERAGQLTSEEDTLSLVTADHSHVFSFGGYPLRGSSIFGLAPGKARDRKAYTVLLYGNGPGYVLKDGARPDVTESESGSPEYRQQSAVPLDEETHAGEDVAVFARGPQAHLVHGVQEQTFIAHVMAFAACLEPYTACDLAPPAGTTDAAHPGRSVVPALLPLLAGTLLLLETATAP
Sequence of Trypsin (P00761 whole entry): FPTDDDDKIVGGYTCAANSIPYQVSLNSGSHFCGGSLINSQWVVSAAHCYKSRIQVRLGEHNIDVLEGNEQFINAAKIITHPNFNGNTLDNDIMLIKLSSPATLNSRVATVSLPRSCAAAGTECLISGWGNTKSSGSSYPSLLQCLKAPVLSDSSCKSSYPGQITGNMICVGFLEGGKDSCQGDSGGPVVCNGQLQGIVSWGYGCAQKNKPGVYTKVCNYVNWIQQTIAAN
Sequence of Disintegrin and metalloproteinase domain-containing protein 17 (P78536 whole entry, the tested form may be a part): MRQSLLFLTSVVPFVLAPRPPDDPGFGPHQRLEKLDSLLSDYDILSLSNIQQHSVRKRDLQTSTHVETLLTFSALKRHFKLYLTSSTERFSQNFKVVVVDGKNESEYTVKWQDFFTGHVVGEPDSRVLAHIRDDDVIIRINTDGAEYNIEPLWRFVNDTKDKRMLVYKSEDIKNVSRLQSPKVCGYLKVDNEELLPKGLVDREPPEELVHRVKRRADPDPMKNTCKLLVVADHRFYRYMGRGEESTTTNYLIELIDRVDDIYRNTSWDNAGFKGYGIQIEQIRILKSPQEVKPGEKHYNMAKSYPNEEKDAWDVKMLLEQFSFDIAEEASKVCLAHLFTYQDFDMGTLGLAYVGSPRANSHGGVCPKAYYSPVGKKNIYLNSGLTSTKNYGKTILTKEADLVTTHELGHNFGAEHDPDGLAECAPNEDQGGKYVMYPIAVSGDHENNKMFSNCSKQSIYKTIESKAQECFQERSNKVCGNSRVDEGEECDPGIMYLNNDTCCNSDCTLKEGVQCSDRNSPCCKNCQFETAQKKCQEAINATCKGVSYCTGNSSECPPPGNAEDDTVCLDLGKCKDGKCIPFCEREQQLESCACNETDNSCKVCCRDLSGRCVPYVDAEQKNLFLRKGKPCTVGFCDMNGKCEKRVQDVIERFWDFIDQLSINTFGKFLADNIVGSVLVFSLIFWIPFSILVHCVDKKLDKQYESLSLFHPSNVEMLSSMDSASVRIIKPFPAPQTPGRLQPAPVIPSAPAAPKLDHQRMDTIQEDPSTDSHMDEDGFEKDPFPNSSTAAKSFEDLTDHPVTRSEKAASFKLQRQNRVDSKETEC

## N=c1c2c(ncn1Cc1ccco1)Oc1ccc3ccccc3c1C2c1ccccc1 (stereo not drawn)
[1]
  AC50: 2.09 µM (active)
Trypsin
  AC50: 7.73 µM (active)
CAAX prenyl protease 2
  AC50: 27.2 µM (active)
[2]
  AC50: 7.51 µM (active)
Protein RecA
  EC50: 16.7 µM (active)
[3]
  IC50: > 69.5 µM (inactive)
[4]
  IC50: > 7.72 µM (active)

## C=CCn1c(SCC(=O)c2ccc(O)c(O)c2)nnc1-c1ccc(C)cc1
[5]
  IC50: 8.57 µM (active)
[6]
  IC50: > 100 µM (inactive)

## NCC1CCN(c2nc3ccccc3c3c2CCCC3)CC1
[7]
  IC50: > 150 µM (active)
Vero [8]
  IC50: > 25 µM (active)
Vero [9]
  CC50: 19.2 µM (active)

## CCN(CC)c1ccc(/C=N/OCC(=O)Nc2cccc(C)c2)cc1
[10]
  EC50: > 32 µM (inactive)
